Columns and labels:
[1] = Inhibition of TEL fused Lck-mediated proliferation of TEL-Lck transformed mouse BA/F3 cells after 48 hrs by bright-glo luciferase assay
[2] = Inhibition of TEL fused Lyn-mediated proliferation of TEL-Lyn transformed mouse BA/F3 cells after 48 hrs by bright-glo luciferase assay
[3] = Inhibition of TEL fused Src-mediated proliferation of TEL-Src transformed mouse BA/F3 cells after 48 hrs by bright-glo luciferase assay
[4] = Inhibition of TEL fused KDR-mediated proliferation of TEL-KDR transformed mouse BA/F3 cells after 48 hrs by bright-glo luciferase assay
[5] = Inhibition of TEL fused InsR-mediated proliferation of TEL-InsR transformed mouse BA/F3 cells after 48 hrs by bright-glo luciferase assay

Compound: Cc1cc(C)c(Nc2nc3ccccc3n2-c2cc(N)ncn2)c(Br)c1 [1-(6-aminopyrimidin-4-yl)-N-(2-bromo-4,6-dimethylphenyl)-1H-benzo[d]imidazol-2-amine]
- IC50 [1]: 1170 nM

Compound: Cc1cc(C)c(Nc2nc3ccccc3n2-c2cc(N)ncn2)c(C)c1 [1-(6-aminopyrimidin-4-yl)-N-mesityl-1H-benzo[d]imidazol-2-amine]
- IC50 [1]: 583 nM

Compound: Cc1nc(Nc2cc(-n3c(Nc4c(C)cccc4Cl)nc4ccccc43)ncn2)cc(N2CCN(CCO)CC2)n1 [2-(4-(6-(6-(2-(2-chloro-6-methylphenylamino)-1H-benzo[d]imidazol-1-yl)pyrimidin-4-ylamino)-2-methylpyrimidin-4-yl)piperazin-1-yl)ethanol]
- IC50 [2]: 30 nM
- IC50 [3]: 5 nM
- IC50 [4]: 356 nM
- IC50 [5]: 2340 nM

Compound: Cc1cccc(Cl)c1Nc1nc2ccccc2n1-c1cc(Nc2ncnc(NCCN3CCOCC3)c2C)ncn1 [N4-(6-(2-(2-chloro-6-methylphenylamino)-1H-benzo[d]imidazol-1-yl)pyrimidin-4-yl)-5-methyl-N6-(2-morpholinoethyl)pyrimidine-4,6-diamine]
- IC50 [1]: 359 nM

Compound: CCN(CC)CCCCNc1cc(-n2c(Nc3c(C)cccc3Cl)nc3ccccc32)ncn1 [N-(2-chloro-6-methylphenyl)-1-(6-(4-(diethylamino)butylamino)pyrimidin-4-yl)-1H-benzo[d]imidazol-2-amine]
- IC50 [1]: 5040 nM

Compound: Cc1cccc(Cl)c1Nc1nc2ccccc2n1-c1cc(Nc2cc(CN3CCOCC3)ccn2)ncn1 [N-(2-chloro-6-methylphenyl)-1-(6-(4-(morpholinomethyl)pyridin-2-ylamino)pyrimidin-4-yl)-1H-benzo[d]imidazol-2-amine]
- IC50 [1]: 17 nM

Compound: Cc1cccc(Cl)c1Nc1nc2ccccc2n1-c1cc(Nc2ccc(CCN3CCOCC3)cn2)ncn1 [N-(2-chloro-6-methylphenyl)-1-(6-(5-(2-morpholinoethyl)pyridin-2-ylamino)pyrimidin-4-yl)-1H-benzo[d]imidazol-2-amine]
- IC50 [2]: 215 nM
- IC50 [3]: 147 nM
- IC50 [4]: 1010 nM
- IC50 [5]: 5160 nM

Compound: Cc1cccc(Cl)c1Nc1nc2ccccc2n1-c1cc(NN2CCOCC2)ncn1 [N-(2-chloro-6-methylphenyl)-1-(6-(morpholinoamino)pyrimidin-4-yl)-1H-benzo[d]imidazol-2-amine]
- IC50 [1]: > 10000 nM

Compound: Cc1cccc(Cl)c1Nc1nc2ccccc2n1-c1cc(Cl)ncn1 [N-(2-chloro-6-methylphenyl)-1-(6-chloropyrimidin-4-yl)-1H-benzo[d]imidazol-2-amine]
- IC50 [1]: 5700 nM

Compound: Cc1cccc(Cl)c1Nc1nc2ccccc2n1-c1cc(N2CCOCC2)ncn1 [N-(2-chloro-6-methylphenyl)-1-(6-morpholinopyrimidin-4-yl)-1H-benzo[d]imidazol-2-amine]
- IC50 [1]: > 10000 nM
